Experimental data as given in patent US6753005B1, “Method for tissue perfusion” (Direct Therapeutics, Inc., priority 1997, dated 2004).
Marks after values point to notes of the source that are not given here.

Test system: normal canine prostate
Assay: Normal canine prostate model, intraprostatic injection
Description: Random-source adult male canines were used in this experiment.
Body surface area (m2) was calculated for each animal using published tables.
On the day of surgery, the animals were preanesthetized with acepromazine (0.22 mg/kg) and atropine (0.05 mg/kg) intramuscularly. General anesthesia was induced with intravenous thiopental sodium (20-25 mg/kg) and, following orotracheal intubation, was maintained with a 0.5-2.0% halothane-oxygen mixture given through a semi-closed circle system. Perioperative antibiotics consisted of intravenous gentamicin (3 mg/kg) on the day of surgery and daily intramuscular gentamicin (3 mg/kg) for seven days following surgery.
In each animal, an 8 French urinary catheter was passed per urethra into the bladder, and the bladder was filled with normal saline. A diagnostic Aloka Echo SSD650 ultrasound machine with a UST 664 5/7.5 MHZ biplanar linear array transrectal probe (Wallingford, Conn.) was used to determine the maximal axial (transverse) width, height, and midline sagittal (longitudinal) length. The length was measured in the midline from the distal most aspect of the apex to the cephalad most portion of the gland. The volume was then determined using the following formula: length×width×½ height. A lower abdominal midline incision was created, and the peritoneal cavity was entered. The bladder and prostate were exposed and the periprostatic fat was carefully dissected off of the base of the gland. Using TRUS imaging of the prostate as well as direct visualization through the peritoneotomy a three inch 20 gauge spinal needle connected to a standard 10-cc luer-lock syringe containing the appropriate aliquot for injection was guided into the base of the right lobe of the prostate. The needle tip was localized within the prostatic parenchyma with ultrasound guidance and appropriately positioned.
Animals were randomly divided into subgroups. Animals A1 and A2 received a volume of dehydrated ethanol equal to 100% of the measured prostate volume while the remaining animals received a volume of 98% dehydrated ethanol equal to 50% of the total gland volume as determined by TRUS imaging. The animals received escalating doses of Carmustine dissolved in dehydrated ethanol: A1 and A2 2 mg/ml; B1 and B2, 5 mg/ml; C1 and C2 12.5 mg/ml; D1 and D2 18 mg/ml; and E1 and E2, 25 mg/ml. All animal subgroups were injected on separate days under general anesthesia through a midline peritoneotomy approach using TRUS guidance for needle placement. The needle was initially positioned at the ventral aspect of the apex of the gland and then withdrawn from apex to base during the injection. The needle was then repositioned toward the dorsal aspect of the gland at the apex and withdrawn toward the base during the injection so that as much of the parenchyma could be covered as possible.
Fourteen days following injection all animals underwent repeat TRUS imaging of the prostate gland under general anesthesia and were then euthanized by exsanguination under deep general anesthesia. The bladders and prostates were excised enbloc and fixed in formalin. If there was any evidence of perirectal inflammation or suspicion of pathology a section of the rectum was removed for pathologic examination. After adequate tissue fixation in formalin, the prostate glands were step sectioned and the volume of the prostate parenchyma affected (cm3) was calculated and quantitated based on the measured length, height and thickness of individual step sections of the gland. The volumes were then added together resulting in a quantification of the total parenchymal volume affected on a prostate gland for prostate gland basis. The tissue was then submitted for histopathologic interpretation.

[1] = all animals, 14 days after injection
[2] = carmustine 5 mg/ml ethanol, 50% of prostate volume, prostate volume 8.42, 14 days
[3] = carmustine 5 mg/ml ethanol, 50% of prostate volume, prostate volume 9.8, 14 days
[4] = carmustine 12.5 mg/ml ethanol, 50% of prostate volume, prostate volume 4.36, 14 days
[5] = carmustine 12.5 mg/ml ethanol, 50% of prostate volume, prostate volume 20.16, 14 days
[6] = carmustine 18 mg/ml ethanol, 50% of prostate volume, prostate volume 27.75, 14 days
[7] = carmustine 18 mg/ml ethanol, 50% of prostate volume, prostate volume 37.2, 14 days
[8] = carmustine 25 mg/ml ethanol, 50% of prostate volume, prostate volume 22.14, 14 days

In the case of O=NN(CCCl)C(=O)NCCCl [Carmustine, carmustine], the “relation of carmustine concentration to volume of tissue affected” value (2-25 mg/ml carmustine in dehydrated ethanol, 14 days) is reported as “highest concentrations of carmustine were associated with the largest volumes of tissue affected”, the rectal injuries (all animals) is reported as “no rectal injuries” and the “findings in prostatic parenchyma (TRUS and step sections)” value [1] is reported as “hemorrhagic and coagulative necrosis”. For the same compound, the “findings in the urethra” value [1] was “submucosal hemorrhage, mucosal erosion and inflammation”, the “Periprostatic Tissue Involvement” value (carmustine 5 mg/ml ethanol, 50% of prostate volume, prostate volume 8.42) was “Marked fat necrosis” and the “Volume Affected Left” value [2] was 0.68 cc^3. For the same compound, the “Volume Affected PU (periurethral)” value [2] was 0 cc^3, the “Volume Affected Right” value [2] was 1.73 cc^3 and the “Periprostatic Tissue Involvement” value (carmustine 5 mg/ml ethanol, 50% of prostate volume, prostate volume 9.8) was “Cystic necrosis R”. The “Volume Affected Left” value [3] was 1.61 cc^3, the “Volume Affected PU (periurethral)” value [3] was 2.51 cc^3 and the “Volume Affected Right” value [3] was 0.85 cc^3. The “Periprostatic Tissue Involvement” value (carmustine 12.5 mg/ml ethanol, 50% of prostate volume, prostate volume 4.36) was “Moderate fat necrosis”, the “Volume Affected PU (periurethral)” value [4] was 0.62 cc^3 and the “Volume Affected left + right” value [4] was 1.8 cc^3. The “Periprostatic Tissue Involvement” value (carmustine 12.5 mg/ml ethanol, 50% of prostate volume, prostate volume 20.16) was “Minimal fat necrosis”, the “Volume Affected Left” value [5] was 1.8 cc^3 and the “Volume Affected PU (periurethral)” value [5] was 0 cc^3. The “Volume Affected Right” value [5] was 1.4 cc^3, the “Periprostatic Tissue Involvement” value (carmustine 18 mg/ml ethanol, 50% of prostate volume, prostate volume 27.75) was “Marked fat necrosis” and the “Volume Affected Left” value [6] was 8.35 cc^3. For the same compound, the “Volume Affected PU (periurethral)” value [6] was 1.2 cc^3, the “Volume Affected Right” value [6] was 12.31 cc^3 and the “Periprostatic Tissue Involvement” value (carmustine 18 mg/ml ethanol, 50% of prostate volume, prostate volume 37.2) was “Marked fat necrosis”. For the same compound, the “Volume Affected Left” value [7] was 11.76 cc^3, the “Volume Affected PU (periurethral)” value [7] was 3.84 cc^3 and the “Volume Affected Right” value [7] was 9.73 cc^3. For the same compound, the “Periprostatic Tissue Involvement” value (carmustine 25 mg/ml ethanol, 50% of prostate volume, prostate volume 22.14) was “Mild fat necrosis”, the “Volume Affected Left” value [8] was 7.5 cc^3 and the “Volume Affected PU (periurethral)” value [8] was 0 cc^3. The “Volume Affected Right” value [8] was 4.8 cc^3, the “Periprostatic Tissue Involvement” value (carmustine 25 mg/ml ethanol, 50% of prostate volume, prostate volume 32.64) was “Large pelvic abscess” and the “Volume Affected left + right + periurethral” value (carmustine 25 mg/ml ethanol, 50% of prostate volume, prostate volume 32.64, 14 days) was 32.64** cc^3.
